According to US11142588B2, “Polypeptides which bind C-X-C chemokine receptor type 4 (CXCR4) and methods of treating or reducing the risk of fibrosis and cancer” (AdAlta Limited, priority 2015, dated 2021):

Tests used:
[1] = test system: normal and IPF lung fibroblasts; assay: Wound healing invasion assay of lung fibroblasts; assay type: cell-based, human; conditions: 130 μg/ml
Summary of the method: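 Normal and slow- or rapid-progressing IPF lung fibroblasts were plated overnight on basement membrane extract (50 μg/ml coating), then overlaid with BME polymerised at 37° C for 15 min. Wound invasion was imaged every 2 h for about 50 h and quantified by image analysis.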

human fibrocytes = assay: Binding to human fibrocytes (confocal microscopy); assay type: cell-based; conditions: CD45 positive cells of PBMCs
Experimental: PBMCs were smeared on a microscope slide and fixed with acetone at 4° C. for 10 minutes. Following three times washing and rehydration with PBS the slides were incubated with mouse antiFLAG 1:100 dilution over night at 4° C. After washing the slides were incubated with Goat anti-mouse Alex Fluor 568 (to detect i-body by binding anti FLAG) at room temperature for 1 hour. The slides were then washed and incubated with Mouse anti-CD-45 FITC labeled antibody over night at 4° C. After further washing the slides were and mounted with ProLong Gold antifade mountant containing DAPI. Images were captured by using Nikon A1 confocal microscope.

CCR4 = target: T1, CCR4 (Homo sapiens, UniProt P51679); assay: PathHunter (DiscoverX) β-arrestin assay, CCR4; assay type: cell-based
T1 sequence (P51679 1-360): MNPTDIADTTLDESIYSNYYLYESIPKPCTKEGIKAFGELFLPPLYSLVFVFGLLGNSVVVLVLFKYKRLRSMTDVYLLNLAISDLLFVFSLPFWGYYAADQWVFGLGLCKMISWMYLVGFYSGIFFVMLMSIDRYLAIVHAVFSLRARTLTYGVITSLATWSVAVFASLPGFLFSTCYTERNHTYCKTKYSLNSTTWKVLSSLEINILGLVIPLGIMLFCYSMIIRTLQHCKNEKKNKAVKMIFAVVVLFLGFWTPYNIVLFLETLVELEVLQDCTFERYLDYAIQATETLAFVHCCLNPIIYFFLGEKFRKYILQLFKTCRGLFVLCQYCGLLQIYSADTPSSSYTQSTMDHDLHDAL
Experimental: (FIG. 9) The PathHunter® β-Arrestin assay (DiscoveRx) was performed according to the manufacturer's protocol. Cells were seeded into white walled, 384-well tissue culture-treated microplates (Corning) and normalized at 5,000 cells (or 10,000 cells for CXCR4) in a total volume of […]. Cell growth was at 37° C. (5% CO2, 95% relative humidity). […] Agonists were then added at the EC80 concentration and incubation was continued at 37° C. for 90 min (or 180 min for CCR1). Assay signal was generated through a single addition of 15 μL (50% v/v) of PathHunter Detection reagent cocktail, followed by 1 h incubation at room temperature. Microplates were read following signal generation with a PerkinElmer Envision instrument for chemiluminescent signal detection of relative light units (RLU).

Molecule	invasion of normal lung fibroblasts [1]	migration of IPF lung fibroblasts ([1]; slow and rapid IPF progressors)	binding to human fibrocytes (human fibrocytes)	CCR4 activity (CCR4)
AM3-114: affinity matured CXCR4 i-body, SEQ ID NO: 40	neither i-body had any effect	specifically inhibited migration	capable of binding to human fibrocytes	
AM3-523: affinity matured CXCR4 i-body, SEQ ID NO: 56 (protein, protein sequence encoding AM3-523) LQVDIVPSQGEISVGESKFFLCQVAGSGSHMRISWFSPNGEKLTPNQQRISVVWNDDSSSTLTIYNANIDDAGIYKCVVWVGGYRHRALVLGEATVNVKIFQ				−2%
